These molecules were tested against human DGKα (Homo sapiens, UniProt P23743) (assay: biochemical).
Sequence of human DGKα (P23743 whole entry): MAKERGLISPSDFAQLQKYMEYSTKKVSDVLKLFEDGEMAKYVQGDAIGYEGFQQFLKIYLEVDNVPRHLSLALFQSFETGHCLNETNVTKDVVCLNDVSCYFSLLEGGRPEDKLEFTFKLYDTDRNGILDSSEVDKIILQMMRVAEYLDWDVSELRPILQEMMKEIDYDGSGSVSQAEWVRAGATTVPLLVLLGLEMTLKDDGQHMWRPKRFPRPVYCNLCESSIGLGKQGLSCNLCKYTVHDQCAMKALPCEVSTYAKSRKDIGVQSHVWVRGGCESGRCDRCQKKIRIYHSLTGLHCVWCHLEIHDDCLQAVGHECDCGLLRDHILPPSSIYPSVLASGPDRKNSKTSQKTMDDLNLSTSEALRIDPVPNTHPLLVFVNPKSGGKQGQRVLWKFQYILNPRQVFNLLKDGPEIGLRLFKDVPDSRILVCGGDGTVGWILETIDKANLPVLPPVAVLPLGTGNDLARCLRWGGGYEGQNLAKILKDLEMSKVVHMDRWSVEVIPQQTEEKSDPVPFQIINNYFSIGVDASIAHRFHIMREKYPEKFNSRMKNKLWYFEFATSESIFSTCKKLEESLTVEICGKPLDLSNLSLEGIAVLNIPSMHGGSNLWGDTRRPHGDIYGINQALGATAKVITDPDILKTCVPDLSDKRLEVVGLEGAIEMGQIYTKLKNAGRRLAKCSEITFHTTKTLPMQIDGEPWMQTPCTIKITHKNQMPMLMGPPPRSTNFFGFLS
For `CCC1(C#Cc2cccc3c2OCCCN3c2nc3nnn(C)c3c3cncc(F)c23)COC1` [Example 1, 9-((3-ethyloxetan-3-yl)ethynyl)-5-(6-fluoro-1-methyl-1H-[1,2,3]triazolo[4,5-c][2,6]naphthyridin-5-yl)-2,3,4,5-tetrahydrobenzo[b][1,4]oxazepine], the IC50 was 10.5 nM. With `CCC1(C#Cc2cccc3c2COCCN3c2nc3nnn(C)c3c3cncc(F)c23)COC1` [Example 3, 6-((3-ethyloxetan-3-yl)ethynyl)-1-(6-fluoro-1-methyl-1H-[1,2,3]triazolo[4,5-c][2,6]naphthyridin-5-yl)-1,2,3,5-tetrahydrobenzo[e][1,4]oxazepine] the IC50 was 2.73 nM. Work on `Cn1nnc2nc(N3CCOCc4c(C#CC5(C)COC5)cccc43)c3c(F)cncc3c21` [Example 4, 1-(6-fluoro-1-methyl-1H-[1,2,3]triazolo[4,5-c][2,6]naphthyridin-5-yl)-6-((3-methyloxetan-3-yl)ethynyl)-1,2,3,5-tetrahydrobenzo[e][1,4]oxazepine] yielded an IC50 of 2.26 nM. In the case of `Cn1nnc2nc(N3CCCc4c(C#CC(C)(C)C#N)cccc43)c3c(F)cncc3c21` [Example 5, 4-(1-(6-fluoro-1-methyl-1H-[1,2,3]triazolo[4,5-c][2,6]naphthyridin-5-yl)-1,2,3,4-tetrahydroquinolin-5-yl)-2,2-dimethylbut-3-ynenitrile], the IC50 is reported as 20.8 nM. Work on `Cn1nnc2nc(N3CCCOc4c(C#CC5(C)CC5)cccc43)c3c(F)cncc3c21` [Example 7, 5-(6-fluoro-1-methyl-1H-[1,2,3]triazolo[4,5-c][2,6]naphthyridin-5-yl)-9-((1-methylcyclopropyl)ethynyl)-2,3,4,5-tetrahydrobenzo[b][1,4]oxazepine] yielded an IC50 of 11.5 nM. Work on `Cn1nnc2nc(N3CCCOc4c(C#CC(C)(C)C#N)cccc43)c3c(F)cncc3c21` [Example 8, 4-(5-(6-fluoro-1-methyl-1H-[1,2,3]triazolo[4,5-c][2,6]naphthyridin-5-yl)-2,3,4,5-tetrahydrobenzo[b][1,4]oxazepin-9-yl)-2,2-dimethylbut-3-ynenitrile] yielded an IC50 of 10.2 nM. Work on `Cn1nnc2nc(N3CCCOc4c(C#CC(C)(C)O)cccc43)c3c(F)cncc3c21` [Example 10, 4-(5-(6-fluoro-1-methyl-1H-[1,2,3]triazolo[4,5-c][2,6]naphthyridin-5-yl)-2,3,4,5-tetrahydrobenzo[b][1,4]oxazepin-9-yl)-2-methylbut-3-yn-2-ol] yielded an IC50 of 13 nM. Molecule `Cn1nnc2nc(N3CCOCc4c(C#CC5(C)CC5)cccc43)c3c(F)cncc3c21` [Example 11, 1-(6-fluoro-1-methyl-1H-[1,2,3]triazolo[4,5-c][2,6]naphthyridin-5-yl)-6-((1-methylcyclopropyl)ethynyl)-1,2,3,5-tetrahydrobenzo[e][1,4]oxazepine] has an IC50 of 8.59 nM. `Cn1nnc2nc(N3CCCCc4c(C#CC(C)(C)O)cccc43)c3c(F)cncc3c21` [Example 15, 4-(1-(6-fluoro-1-methyl-1H-[1,2,3]triazolo[4,5-c][2,6]naphthyridin-5-yl)-2,3,4,5-tetrahydro-1H-benzo[b]azepin-6-yl)-2-methylbut-3-yn-2-ol] gave an IC50 of 5.42 nM. In the case of `Cn1nnc2nc(N(CC(F)F)c3cc(F)cc(C#CC(C)(C)C#N)c3)c3c(F)cncc3c21` [Example 16, 4-(3-((2,2-difluoroethyl)(6-fluoro-1-methyl-1H-[1,2,3]triazolo[4,5-c][2,6]naphthyridin-5-yl)amino)-5-fluorophenyl)-2,2-dimethylbut-3-ynenitrile], the IC50 is reported as 42.2 nM. In the case of `Cn1nnc2nc(N(CC(F)F)c3ccnc(C#CC4(C)CC4)c3)c3c(F)c(F)ccc3c21` [Example 17, N-(2,2-difluoroethyl)-6,7-difluoro-1-methyl-N-(2-((1-methylcyclopropyl)ethynyl)pyridin-4-yl)-1H-[1,2,3]triazolo[4,5-c]isoquinolin-5-amine], the IC50 is reported as 61.8 nM. Molecule `Cn1nnc2nc(N(CC(F)F)c3ccnc(C#CC4(C)CC4)c3)c3c(F)cncc3c21` [Example 19, N-(2,2-difluoroethyl)-6-fluoro-1-methyl-N-(2-((1-methylcyclopropyl)ethynyl)pyridin-4-yl)-1H-[1,2,3]triazolo[4,5-c][2,6]naphthyridin-5-amine] has an IC50 of 31.4 nM. `Cn1nnc2nc(N(CC(F)F)c3ccnc(C#CC(C)(C)C#N)c3)c3c(F)cncc3c21` [Example 20, 4-(4-((2,2-difluoroethyl)(6-fluoro-1-methyl-1H-[1,2,3]triazolo[4,5-c][2,6]naphthyridin-5-yl)amino)pyridin-2-yl)-2,2-dimethylbut-3-ynenitrile] showed an IC50 of 109 nM. `Cn1nnc2nc(N3CCCc4c(C#CC5(C)CC5)cncc43)c3cc(F)ccc3c21` [Example 22, 7-fluoro-1-methyl-5-(5-((1-methylcyclopropyl)ethynyl)-3,4-dihydro-1,7-naphthyridin-1(2H)-yl)-1H-[1,2,3]triazolo[4,5-c]isoquinoline] was tested, and the IC50 was 124 nM. With `Cn1nnc2nc(N(CC(F)F)c3ccnc(C#CC4(C)CC4)c3)c3c(F)cccc3c21` [Example 24, N-(2,2-difluoroethyl)-6-fluoro-1-methyl-N-(2-((1-methylcyclopropyl)ethynyl)pyridin-4-yl)-1H-[1,2,3]triazolo[4,5-c]isoquinolin-5-amine] the IC50 was 54.5 nM. `Cn1nnc2nc(N(CC(F)F)c3ccnc(C#CC4(C)CC4)c3)c3cc(F)ccc3c21` [Example 25, N-(2,2-difluoroethyl)-7-fluoro-1-methyl-N-(2-((1-methylcyclopropyl)ethynyl)pyridin-4-yl)-1H-[1,2,3]triazolo[4,5-c]isoquinolin-5-amine] gave an IC50 of 39.2 nM. Molecule `Cn1nnc2nc(N(CC(F)F)c3ccnc(C#CC(C)(C)O)c3)c3cc(F)ccc3c21` [Example 27, 4-(4-((2,2-difluoroethyl)(7-fluoro-1-methyl-1H-[1,2,3]triazolo[4,5-c]isoquinolin-5-yl)amino)pyridin-2-yl)-2-methylbut-3-yn-2-ol] has an IC50 of 143 nM. Work on `Cn1nnc2nc(N3CCCc4c(C#CC(C)(C)C#N)cncc43)c3c(F)cccc3c21` [Example 30, 4-(1-(6-fluoro-1-methyl-1H-[1,2,3]triazolo[4,5-c]isoquinolin-5-yl)-1,2,3,4-tetrahydro-1,7-naphthyridin-5-yl)-2,2-dimethylbut-3-ynenitrile] yielded an IC50 of 160 nM. Work on `Cn1nnc2nc(N3CCCc4c(C#CC(C)(C)O)cncc43)c3c(F)cncc3c21` [Example 32, 4-(1-(6-fluoro-1-methyl-1H-[1,2,3]triazolo[4,5-c][2,6]naphthyridin-5-yl)-1,2,3,4-tetrahydro-1,7-naphthyridin-5-yl)-2-methylbut-3-yn-2-ol] yielded an IC50 of 93 nM. Molecule `Cn1nnc2nc(N(CC(F)F)c3cc(F)cc(C#CC(C)(C)O)c3)c3cc(F)cnc3c21` [Example 34, 4-(3-((2,2-difluoroethyl)(7-fluoro-1-methyl-1H-[1,2,3]triazolo[4,5-h][1,6]naphthyridin-5-yl)amino)-5-fluorophenyl)-2-methylbut-3-yn-2-ol] has an IC50 of 26.1 nM. `Cn1nnc2nc(N3CCCc4c(C#CC(C)(C)C#N)cccc43)c3cc(F)cnc3c21` [Example 35, 4-(1-(7-fluoro-1-methyl-1H-[1,2,3]triazolo[4,5-h][1,6]naphthyridin-5-yl)-1,2,3,4-tetrahydroquinolin-5-yl)-2,2-dimethylbut-3-ynenitrile] was tested, and the IC50 was 50.7 nM. With `Cn1nnc2nc(N(CC(F)F)c3cc(F)cc(C#CC4(C(F)(F)F)CC4)c3)c3c(F)cncc3c21` [Example 38, N-(2,2-difluoroethyl)-6-fluoro-N-(3-fluoro-5-((1-(trifluoromethyl)cyclopropyl)ethynyl)phenyl)-1-methyl-1H-[1,2,3]triazolo[4,5-c][2,6]naphthyridin-5-amine] the IC50 was 51.6 nM. With `Cn1nnc2nc(N3CCCc4c(C#CC5(C(F)(F)F)CC5)cccc43)c3c(F)cncc3c21` [Example 40, 6-fluoro-1-methyl-5-(5-((1-(trifluoromethyl)cyclopropyl)ethynyl)-3,4-dihydroquinolin-1(2H)-yl)-1H-[1,2,3]triazolo[4,5-c][2,6]naphthyridine] the IC50 was 41.9 nM. In the case of `Cn1nnc2nc(N(CC(F)F)c3cc(F)cc(C#CC(C)(C)O)c3)c3cc(F)ccc3c21` [Example 43, 4-(3-((2,2-difluoroethyl)(7-fluoro-1-methyl-1H-[1,2,3]triazolo[4,5-c]isoquinolin-5-yl)amino)-5-fluorophenyl)-2-methylbut-3-yn-2-ol], the IC50 is reported as 34.1 nM. `Cn1nnc2nc(N3CCCc4c(C#CC(C)(C)O)cccc43)c3c(F)cccc3c21` [Example 45, 4-(1-(6-fluoro-1-methyl-1H-[1,2,3]triazolo[4,5-c]isoquinolin-5-yl)-1,2,3,4-tetrahydroquinolin-5-yl)-2-methylbut-3-yn-2-ol] showed an IC50 of 19.4 nM. Molecule `Cn1nnc2nc(N(CC(F)F)c3cc(F)cc(C#CC4(C(F)(F)F)CC4)c3)c3c(F)cccc3c21` [Example 48, N-(2,2-difluoroethyl)-6-fluoro-N-(3-fluoro-5-((1-(trifluoromethyl)cyclopropyl)ethynyl)phenyl)-1-methyl-1H-[1,2,3]triazolo[4,5-c]isoquinolin-5-amine] has an IC50 of 64.9 nM. `Cn1nnc2nc(N3CCCc4c(C#CC5(C(F)(F)F)CC5)cccc43)c3ccc(Cl)cc3c21` [Example 50, 8-chloro-1-methyl-5-(5-((1-(trifluoromethyl)cyclopropyl)ethynyl)-3,4-dihydroquinolin-1(2H)-yl)-1H-[1,2,3]triazolo[4,5-c]isoquinoline] was tested, and the IC50 was 23.2 nM. In the case of `Cn1nnc2nc(N(CC(F)F)c3cc(F)cc(C#CC(C)(C)O)c3)c3ccc(Cl)cc3c21` [Example 51, 4-(3-((8-chloro-1-methyl-1H-[1,2,3]triazolo[4,5-c]isoquinolin-5-yl)(2,2-difluoroethyl)amino)-5-fluorophenyl)-2-methylbut-3-yn-2-ol], the IC50 is reported as 22.5 nM.

From patent US11999733B2, “Diacylglycerol kinase modulating compounds” (Gilead Sciences, Inc., priority 2021, dated 2024)
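Also: recombinant enzyme acting on 18:1 DAG micelles (with POPS and octylglucoside) plus 200 µM ATP, 1 h at 25 °C, ADP generated read out by ADP-Glo luminescence.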
